Reference: patent publication US8637038B2, “Methods for inhibiting allograft rejection” (Rigel Pharmaceuticals, Inc., priority 2011, dated 2014)
Read-outs that look alike come from different tables or passages of the source.

Legend:
[1] = test system: JAK1/3; assay: IL-2 T cell phospho-STAT5; assay type: cell-based; details: Homo sapiens
Procedure: The activity of Compound III and Compound I was assessed in a panel of cell-based assays. Compound III and Compound I are selective inhibitors of JAK1/3-dependent signaling. Data for a non-selective JAK inhibitor (Compound IV) is shown for reference. Mixed lymphocyte reactions (MLRs) were performed by incubating freshly prepared naive human peripheral blood lymphocytes from one donor with CD80+/CD86+ mature Dendritic Cells derived from a different donor for 5 days. The percentage of CD3+/CD71+ (anti-CD3-APC, Clone HIT3a, anti-CD 71-FITC, Clone M-A712; BD Biosciences, San Jose, Calif.) proliferating cells was assessed by fluorescence-activated cell sorting (FACS; BD Bioscience). Interleukin-2 (IL-2)-dependent human primary T cell proliferation was assessed using CellTiter-Glo® Luminescent Cell Viability Assay (Promega, Madison, Wis.). STAT phosphorylation induced by different cytokines in human primary T cells was measured by intracellular FACS analysis (anti-pY694-STAT5 AlexaFluor488, anti-pY701-STAT1 AlexaFluor488, and anti-pY693-STAT4 AlexaFluor488; BD Biosciences). STAT phosphorylation induced by different cytokines was performed in whole blood after red blood cell lysis (Lyse/Fix buffer, BD Biosciences) and methanol permeabilization. Interferon-γ (IFN-γ) signaling was assessed in the U937 monocytic cell line by measuring ICAM-1 surface expression by FACS (ICAM-1-APC, BD Bioscience).

[2] = test system: H1299 lung carcinoma cells; assay: H1299 proliferation; assay type: cell-based; details: Homo sapiens
Procedure: The erythropoietin (EPO)-dependent survival of cultured human erythroid progenitor cells (CHEPs) was determined using CellTiter-Glo® Luminescent Cell Viability Assay (Promega). Human primary T cell activation was assessed by measuring IL-2 production by ELISA (R&D Systems, Minneapolis, Minn., USA) following plate-bound anti-CD3 and anti-CD28 stimulation (Anti-Human CD3; BD Biosciences; Anti-Human CD28; Immunotech; Prague, Czech Republic). The enzymatic activity of tryptase released by human cultured mast cells (CHMCs) upon stimulation with IgE was quantified by cleavage of the synthetic fluorescent peptide substrate Z-Ala-Lys-Arg-7-amino-4-methylcoumarin (MP Biomedicals, Solon, Ohio, USA) in tryptase buffer. B-cell receptor-dependent Erk phosphorylation was measured in Ramos cells by intracellular FACS (anti-pT202/pY204-ERK1/2-AlexaFluor488; BD Biosciences). Cell proliferation assays were performed using A549 epithelial cells and H1299 lung carcinoma cells using nuclear staining to measure cell numbers (4′6-diamidino-2-phenylindole, dihydrochloride (DAPI; Invitrogen, Darmstadt, Germany)).

[3] = test system: Lew recipients of heterotopic BN heart transplants; assay: Five-day heart allograft study: ELISPOT (IFN-γ, IL-4, IL-17) of recipient splenocytes; assay type: in vivo, rat; details: for IFN-γ spot frequency (ELISPOT) compared to no medication group: LD groups (Compound I 15 mg/kg BID, Compound III 5 mg/kg BID, Tac 1 mg/kg QD), five days; for suppression of IFN-γ response to donor-specific antigens compared to Tac LD treatment: LD groups
Procedure: (§1) Compound I and Compound III were provided by Rigel (South San Francisco, Calif.) and Tacrolimus was provided by Astellas (Munich, Germany). All drugs were administrated orally each in two different concentrations: Compound I LD (15 mg/kg BID; n=6) and HD (60 mg/kg BID; n=6); Compound III LD (5 mg/kg BID; n=6) and HD (20 mg/kg BID; n=6); Tac LD (1 mg/kg QD; n=6) and HD (4 mg/kg QD; n=6). Administration of all drugs was performed every day at the same time points. Tacrolimus was applied only once a day (QD) every 24 hours. During administration of Compound I (BID) and Compound III (BID) a 12 hour pause was kept in between each drug application.
(§2) Lew recipients of heterotopic BN heart transplants were randomly assigned to their group. Animals were either left untreated (groups 1 and 2; see Table 1,5-day study) or received their group specific medication (groups 3-8; see Table 1,5-day study) by oral application. An untreated syngeneic transplant group Lew-Lew was generated as control.
Lymphocytes were isolated from freshly harvested spleens. ELISPOT assays with 1×10^7/ml mitomycin-inhibited BN splenocytes and 1×10^6/ml Lew splenocytes were performed according to the manufacturer's protocol (BD Biosciences). 96-well plates were coated with IFN-γ, IL-17, and IL-4 to assess T helper cell (Th)1-, Th17-, and Th2-responses independently. All assays were performed in quadruplicates. Spots were automatically enumerated using an ELISPOT plate reader (CTL, Cincinnati, Ohio) for scanning and analyzing.

[4] = In vivo pharmacokinetics, plasma levels by LC/MS/MS; design: species or system Lewis rats; details: for time of peak plasma level after administration: male Lewis rats
Procedure: Male Lewis rats were orally administered at dosages of Compound I HD (60 mg/kg/BID); Compound I LD (15 mg/kg/BID); Compound III HD (20 mg/kg/BID), and Compound III LD (5 mg/kg/BID), respectively. Plasma levels of drugs were quantified 0.5, 1, 1.5, 2, 3, 4, 6, 8, and 10 hours after administration. Plasma levels of Compound I and Compound III were quantified by LC/MS/MS.
Pharmacokinetics were performed in male Lewis rats. Plasma levels were measured within a 10 hour period. Resulting plasma concentrations of Compound I HD (60 mg/kg BID), Compound I LD (15 mg/kg BID), Compound III HD (20 mg/kg BID), and Compound III LD (5 mg/kg BID) are depicted in FIG. 1. Compound I HD and Compound I LD plasma levels peaked 1.5-2 hours after administration. Compound III HD plasma levels peaked after 3-3.5 hours and Compound III LD levels 2 hours after administration.

[5] = Five-day heart allograft study: side effects (clinical chemistry); assay type: in vivo, rat; details: five days
Procedure: as §1, §2
EDTA samples and sera were taken five days after transplantation for differential blood count, BUN, Creatinine, Cholesterol, HDL, LDL, Triglycerides, AST, and ALT, respectively. Analyses were performed by standard clinical chemistry procedures.

[6] = read-out: EC50, JAK1/3-dependent Stat5 phosphorylation in response to IL-2
[7] = HD oral: Compound I 60 mg/kg BID, Compound III 20 mg/kg BID
[8] = LD oral: Compound I 15 mg/kg BID, Compound III 5 mg/kg BID

Row | SMILES | EC50 [1, 6] | EC50 ([1]; read-out: IL-2 T cell phospho-STAT5 EC50) | EC50 ([2]; NCI-H1299, read-out: H1299 proliferation EC50) | IFN-γ spot frequency compared to Tac HD group ([3]; Compound III LD 5 mg/kg BID, p<0.05) | IFN-γ spot frequency (ELISPOT) compared to no medication group [3] | suppression of IFN-γ response to donor-specific antigens compared to Tac LD treatment ([3]; p<0.001) | AUC of HD group relative to LD group ([4]; Compound I 60 vs 15 mg/kg BID, Compound III 20 vs 5 mg/kg BID, 10 hour period) | time of peak plasma level after administration [4, 7] | time of peak plasma level after administration [4, 8] | serum HDL, mean ([5]; HD (Compound I 60 mg/kg BID, Compound III 20 mg/kg BID, Tac 4 mg/kg QD), no medication mean 26.0) | serum LDL, mean ([5]; LD (Compound III 5 mg/kg BID, Tac 1 mg/kg QD)) | EC50 ([1]; upstream kinases JAK1/3, read-out: IL-2 T cell phospho-STAT5 EC50) | EC50 ([2]; NCI-H1299, upstream kinases Multiple, read-out: H1299 proliferation EC50) | IL-17 cytokine release (ELISPOT) compared to no medication group ([3]; HD 60 mg/kg BID, p<0.010) | IL-17 cytokine release (ELISPOT) compared to no medication group ([3]; LD 15 mg/kg BID, p<0.001) | IL-17 spot frequency compared to Tac LD ([3]; LD 15 mg/kg BID, p<0.001)
1 | COc1cc(Nc2ncc(C)c(Nc3ccc4oc(=O)[nH]c4c3)n2)cc(C)c1C [Compound III, 5-(2-(3-methoxy-4,5-dimethylphenylamino)-5-methylpyrimidin-4-ylamino)benzol[d]oxazol-2-(3H)-one] | 35 nM | 35 ± 15 nM | 5080 ± 1820 nM | less IFN-γ spot frequency | significantly reduced | significantly better results | > 22 fold | 3 to 3.5 h | 2 h | 46.3 mg/dL | 19.6 mg/dL | – | – | – | – | –
2 | COc1cc(Nc2ncc(C)c(Nc3ccc4oc(=O)[nH]c4c3)n2)cc(C)c1F [Compound I, 5-(2-(4-fluoro-3-methoxy-5-methylphenylamino)-5-methylpyrimidin-4-ylamino)benzo[d]oxazol-2(3H)-one] | 21 nM | – | – | – | significantly reduced | significantly better results | – | 1.5 to 2 h | 1.5 to 2 h | – | – | 21 ± 9 nM | 3430 ± 1310 nM | significantly suppressed | significantly suppressed | significantly less spot frequency
